Data taken from ChEMBL document CHEMBL5154921, “Discovery and Characterization of the First Nonpeptide Antagonists for the Relaxin-3/RXFP3 System” (J Med Chem, 2022).
Activity calls are given as the source filed them. No cut-off for these calls is given here.

Legend:
[1] = target: Relaxin receptor 1 (Homo sapiens) (UniProt Q9HBX9); assay: Antagonist activity at human RXFP1 receptor expressed in CHO-K1 cells assessed as cAMP production at 10 to 30 uM in presence of relaxin-3 incubated for 30 mins by TR-FRET assay; format: functional, cell-based; details: filed as antagonist, dose 10-30 µM
Sequence of Relaxin receptor 1 (Homo sapiens) (Q9HBX9 whole entry): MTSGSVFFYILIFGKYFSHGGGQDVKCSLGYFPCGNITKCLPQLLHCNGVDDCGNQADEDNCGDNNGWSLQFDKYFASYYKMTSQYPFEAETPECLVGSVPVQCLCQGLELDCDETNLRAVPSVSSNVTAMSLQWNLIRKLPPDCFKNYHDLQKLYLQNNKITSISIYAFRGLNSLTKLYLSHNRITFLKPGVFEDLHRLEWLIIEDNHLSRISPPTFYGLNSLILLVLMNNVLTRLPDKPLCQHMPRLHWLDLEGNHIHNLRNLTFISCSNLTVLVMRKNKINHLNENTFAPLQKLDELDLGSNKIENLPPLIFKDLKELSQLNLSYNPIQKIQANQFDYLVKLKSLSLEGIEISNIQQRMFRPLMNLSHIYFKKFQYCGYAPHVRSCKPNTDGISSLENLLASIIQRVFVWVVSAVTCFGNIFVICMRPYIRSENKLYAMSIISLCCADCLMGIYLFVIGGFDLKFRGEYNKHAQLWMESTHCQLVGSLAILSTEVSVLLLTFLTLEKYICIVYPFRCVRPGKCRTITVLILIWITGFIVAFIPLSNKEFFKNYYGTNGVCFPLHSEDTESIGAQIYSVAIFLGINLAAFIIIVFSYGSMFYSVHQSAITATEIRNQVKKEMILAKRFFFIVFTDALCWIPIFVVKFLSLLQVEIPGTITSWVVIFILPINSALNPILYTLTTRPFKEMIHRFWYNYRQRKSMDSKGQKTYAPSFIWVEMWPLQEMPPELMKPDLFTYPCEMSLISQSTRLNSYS

Relaxin-3 receptor 1 [2] = target: T1, Relaxin-3 receptor 1 (Homo sapiens, UniProt Q9NSD7); assay: Antagonist activity at human RXFP3 expressed in CHO-K1 cells assessed as [35S]GTPgammaS binding incubated for 1 hr by [35S]GTP-gammaS binding assay; format: functional, cell-based
T1 sequence (Q9NSD7 whole entry): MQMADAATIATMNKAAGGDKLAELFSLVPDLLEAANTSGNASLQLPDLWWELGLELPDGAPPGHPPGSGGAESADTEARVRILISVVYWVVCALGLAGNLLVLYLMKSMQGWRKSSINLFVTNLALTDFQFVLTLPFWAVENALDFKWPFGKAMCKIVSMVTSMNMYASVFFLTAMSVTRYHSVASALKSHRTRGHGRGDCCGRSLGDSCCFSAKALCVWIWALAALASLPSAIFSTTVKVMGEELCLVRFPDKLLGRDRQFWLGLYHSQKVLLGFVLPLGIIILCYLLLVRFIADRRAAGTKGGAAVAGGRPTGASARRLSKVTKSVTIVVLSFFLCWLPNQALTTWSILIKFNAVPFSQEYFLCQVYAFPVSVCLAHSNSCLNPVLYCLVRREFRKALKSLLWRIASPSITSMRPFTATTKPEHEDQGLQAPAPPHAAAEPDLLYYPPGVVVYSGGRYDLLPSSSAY

Relaxin-3 receptor 1 [3] = target: T1, Relaxin-3 receptor 1; assay: Antagonist activity at human RXFP3 expressed in CHO-K1 cells assessed as forskolin-induced cAMP accumulation measured after 30 mins in presence of relaxin-3 by TR-FRET assay; format: functional, cell-based
Relaxin-3 receptor 1 [4] = target: T1, Relaxin-3 receptor 1
Relaxin-3 receptor 1 [5] = target: T1, Relaxin-3 receptor 1; assay: Antagonist activity at human RXFP3 expressed in CHO-K1 cells assessed as inhibition of relaxin-3 stimulated ERK1/2 phosphorylation preincubated for 15 mins followed by relaxin-3 addition for 5 mins; format: functional, cell-based

Activity [1]	IC50 (Relaxin-3 receptor 1 [2]) [nM]	Compound	IC50 (Relaxin-3 receptor 1 [3]) [nM]	Ki (Relaxin-3 receptor 1 [4]) [nM]	IC50 (Relaxin-3 receptor 1 [5]) [nM]
Active	3040	O=C(Nc1ccc(-c2nc(-c3ccc(Cl)cc3)no2)cc1)C1CC(=O)N(Cc2cccnc2)C1 (stereo not given)			
		H-RAAPYGVRLSGREFIRAVIFTSR-NH2	504	11.1	7820
